{
  "source": "paper PMC3383625",
  "about": "(Chemistry & biology, 2012)",
  "key": {"Nox2 [1]": {"molecular_target": "T1, Nox2 (Homo sapiens, UniProt P04839)", "assay": "Cell-free assay for Nox2-dependent superoxide generation", "format": "biochemical"}, "Nox2 [2]": {"molecular_target": "T1, Nox2", "assay": "Nox2 activity in intact PMA-stimulated neutrophils", "format": "cell-based"}, "[3]": {"system": "protein-kinase-C-mediated phosphorylation of p47phox", "assay": "PKC-mediated phosphorylation of p47phox in neutrophils", "format": "cell-based, human", "details": "10 μM ebselen"}, "[4]": {"details": "ref Muller et al.,1984; cited from earlier work"}, "[5]": {"molecular_target": "T2, p67phox-p47phox association (Homo sapiens, UniProt P14598)", "T2 sequence (P14598 1-390)": "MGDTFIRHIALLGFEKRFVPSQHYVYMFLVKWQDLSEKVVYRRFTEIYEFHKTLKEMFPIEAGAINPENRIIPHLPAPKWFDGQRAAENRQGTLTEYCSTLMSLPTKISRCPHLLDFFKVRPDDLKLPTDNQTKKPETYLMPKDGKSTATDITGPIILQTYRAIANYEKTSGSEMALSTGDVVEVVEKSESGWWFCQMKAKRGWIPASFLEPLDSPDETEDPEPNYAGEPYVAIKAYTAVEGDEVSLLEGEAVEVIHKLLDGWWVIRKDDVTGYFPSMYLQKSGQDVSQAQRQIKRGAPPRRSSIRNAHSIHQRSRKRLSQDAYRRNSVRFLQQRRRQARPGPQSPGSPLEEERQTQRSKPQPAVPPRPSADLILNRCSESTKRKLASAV", "assay": "Co-immunoprecipitation of p67phox with p47phox in PMA-stimulated neutrophils", "format": "cell-based", "details": "10 μM ebselen, PMA-stimulated cells"}, "PKC": {"system": "PKC", "details": "ref Cotgreave et al.,1989; cited from earlier work"}, "Kupffer cells": {"system": "Kupffer cells", "details": "read-out: IC50 for reactive oxygen by luminol luminescence; ref Wang et al.,1992; cited from earlier work"}, "Nox1": {"molecular_target": "Nox1 (Homo sapiens, UniProt Q9Y5S8)", "sequence (Q8NFA2 whole entry partner)": "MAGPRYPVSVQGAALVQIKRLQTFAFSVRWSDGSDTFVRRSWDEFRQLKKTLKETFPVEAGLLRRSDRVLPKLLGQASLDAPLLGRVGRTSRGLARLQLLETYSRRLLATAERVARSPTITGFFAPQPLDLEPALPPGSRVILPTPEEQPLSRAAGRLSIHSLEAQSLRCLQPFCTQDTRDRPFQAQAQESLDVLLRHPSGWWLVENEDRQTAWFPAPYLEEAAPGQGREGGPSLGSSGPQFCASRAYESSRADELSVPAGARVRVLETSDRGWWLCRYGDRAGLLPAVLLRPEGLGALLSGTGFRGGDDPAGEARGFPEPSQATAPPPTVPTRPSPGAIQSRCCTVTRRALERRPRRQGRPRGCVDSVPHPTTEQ", "sequence (Q9Y5S8 whole entry)": "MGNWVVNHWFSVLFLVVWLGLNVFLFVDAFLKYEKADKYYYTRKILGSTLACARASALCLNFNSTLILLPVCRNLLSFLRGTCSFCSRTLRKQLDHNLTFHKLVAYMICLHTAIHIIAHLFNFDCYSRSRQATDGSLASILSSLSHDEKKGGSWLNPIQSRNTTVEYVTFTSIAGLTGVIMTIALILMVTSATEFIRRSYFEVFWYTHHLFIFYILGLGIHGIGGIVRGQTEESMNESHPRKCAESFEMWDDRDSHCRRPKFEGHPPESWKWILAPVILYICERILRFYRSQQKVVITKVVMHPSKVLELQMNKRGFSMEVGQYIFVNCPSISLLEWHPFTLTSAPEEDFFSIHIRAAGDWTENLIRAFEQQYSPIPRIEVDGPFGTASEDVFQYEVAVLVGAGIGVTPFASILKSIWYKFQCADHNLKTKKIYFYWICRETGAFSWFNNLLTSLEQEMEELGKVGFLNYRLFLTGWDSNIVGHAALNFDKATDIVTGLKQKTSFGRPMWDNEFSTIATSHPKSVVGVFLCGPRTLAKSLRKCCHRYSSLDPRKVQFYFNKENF", "assay": "Nox1 activity in whole cells"}, "[6]": {"system": "guinea pig alveolar macrophages", "details": "read-out: IC50 for inhibition in guinea pig macrophages; ref Leurs et al.,1989; cited from earlier work"}, "[7]": {"system": "p47phox and p67phox translocation in neutrophils", "format": "cell-based, human", "details": "10 μM ebselen"}, "[8]": {"molecular_target": "T3, binding of MBP-p22-C and GST-p47-bis-SH3 (Homo sapiens, UniProt P14598)", "T3 sequence (P14598 156-285)": "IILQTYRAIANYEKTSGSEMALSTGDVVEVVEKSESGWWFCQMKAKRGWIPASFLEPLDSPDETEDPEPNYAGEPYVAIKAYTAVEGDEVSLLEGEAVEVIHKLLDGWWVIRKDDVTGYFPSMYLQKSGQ", "assay": "Pull-down assay of MBP-p22-C with GST-p47-bis-SH3 on glutathione agarose beads", "details": "20 μM ebselen"}, "[9]": {"molecular_target": "T4, bis-SH3 domain of p47phox (binding of the PRD of p22phox) (Homo sapiens, UniProt P14598)", "T4 sequence (P14598 156-285)": "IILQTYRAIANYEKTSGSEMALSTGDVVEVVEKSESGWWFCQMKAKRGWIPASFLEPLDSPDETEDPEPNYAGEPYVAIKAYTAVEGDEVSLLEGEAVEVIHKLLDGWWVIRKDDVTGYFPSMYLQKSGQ", "assay": "Fluorescence polarization"}, "Nox4": {"molecular_target": "T5, Nox4 (Homo sapiens, UniProt Q9NPH5)", "T5 sequence (Q9NPH5 1-578)": "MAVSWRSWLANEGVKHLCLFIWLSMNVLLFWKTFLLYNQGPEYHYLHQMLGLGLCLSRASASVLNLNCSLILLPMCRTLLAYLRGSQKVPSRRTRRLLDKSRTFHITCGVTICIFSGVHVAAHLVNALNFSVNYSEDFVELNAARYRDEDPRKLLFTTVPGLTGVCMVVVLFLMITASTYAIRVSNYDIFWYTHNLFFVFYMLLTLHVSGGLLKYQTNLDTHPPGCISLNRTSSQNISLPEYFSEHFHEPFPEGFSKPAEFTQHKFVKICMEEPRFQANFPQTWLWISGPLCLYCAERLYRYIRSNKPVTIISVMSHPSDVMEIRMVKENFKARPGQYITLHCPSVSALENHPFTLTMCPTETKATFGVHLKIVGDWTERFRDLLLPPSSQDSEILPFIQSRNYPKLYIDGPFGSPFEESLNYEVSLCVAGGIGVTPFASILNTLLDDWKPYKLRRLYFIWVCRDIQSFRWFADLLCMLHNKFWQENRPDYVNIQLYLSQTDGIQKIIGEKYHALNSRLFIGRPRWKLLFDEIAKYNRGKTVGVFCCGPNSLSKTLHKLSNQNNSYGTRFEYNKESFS", "T5 sequence (P13498 2-195 partner limits assumed)": "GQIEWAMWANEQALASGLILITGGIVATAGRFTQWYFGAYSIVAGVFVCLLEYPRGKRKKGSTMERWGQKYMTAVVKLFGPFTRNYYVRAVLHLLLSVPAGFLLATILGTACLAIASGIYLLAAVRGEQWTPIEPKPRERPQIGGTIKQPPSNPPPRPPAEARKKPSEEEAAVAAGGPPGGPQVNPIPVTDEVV", "assay": "Nox4 activity in whole cells", "format": "cell-based", "details": "read-out: EC50 for inhibition of Nox4 activity in whole cell assay; HEK/Nox4rb cells; ns = no significant inhibition"}, "[10]": {"molecular_target": "T6, GST-tagged p47phox-bis-SH3 domain (GST-p47-bis-SH3) (human, UniProt P14598 156-285)", "T6 sequence (looked up)": "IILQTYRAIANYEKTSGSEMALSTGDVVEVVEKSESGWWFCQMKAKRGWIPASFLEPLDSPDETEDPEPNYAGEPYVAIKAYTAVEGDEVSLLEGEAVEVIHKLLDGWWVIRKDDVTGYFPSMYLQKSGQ", "assay": "fluorescence polarisation"}, "[11]": {"details": "comparator as named in text (parent Thr101 or fluoro-derivative j)"}},
  "note": "Several values for one entry are separate records, joined by “and”; a condition that tells them apart may be missing. Identical values can stand only once. Like-named read-outs stand apart in the source and are kept apart here. rhodamine = not defined here",
  "data": [
    {"molecule": "c1ccc2c(c1)[I+]c1ccccc1-2", "note": "[DPI, diphenylene iodonium]", "values": [
      {"measurement": "Luminescence relative to incubations containing DMSO vehicle alone", "setting": "Nox2 [1]; cell-free Nox2 assay, data not shown", "value": "less than 10%"},
      {"measurement": "Luminescence relative to DMSO-treated cells", "setting": "Nox2 [2]; neutrophils, 10 uM DPI, data not shown", "value": "less than 10%"}
    ]},
    {"molecule": "O=c1c2ccccc2[se]n1-c1ccccc1", "note": "[Ebselen]", "values": [
      {"measurement": "Effect on protein-kinase-C-mediated phosphorylation of p47phox or other neutrophil proteins (words)", "setting": "[3]", "value": "did not affect"},
      {"measurement": "Effect on protein-kinase-C-mediated phosphorylation of p47phox or other neutrophil proteins (words)", "setting": "[3]; listed as ebselen", "value": "does not inhibit PKC phosphorylation"},
      {"measurement": "Optimum concentration needed to catalyze H2O2 peroxidase activity", "setting": "[4]", "value": "about 20 μM"},
      {"measurement": "Effect on co-immunoprecipitation of p67phox with p47phox (words)", "setting": "[5]", "value": "did affect the ability of p67phox to coimmunoprecipitate with p47phox"},
      {"measurement": "Effect on co-immunoprecipitation of p67phox with p47phox (words)", "setting": "[5]; listed as ebselen", "value": "diminishes the co-immunoprecipitation"},
      {"measurement": "Concentration inhibiting purified PKC enzyme", "setting": "PKC", "value": "submicromolar"},
      {"measurement": "IC50", "setting": "Kupffer cells", "value": "~1000", "unit": "nM"},
      {"measurement": "EC50", "setting": "Nox1", "value": 150, "unit": "nM"},
      {"measurement": "IC50", "setting": "[6]", "value": "~20", "unit": "µM"},
      {"measurement": "Effect on PMA-stimulated translocation of p47phox and p67phox", "setting": "[7]; 500 nM PMA", "value": "completely blocked"},
      {"measurement": "Effect on translocation in the absence of PMA", "setting": "[7]; no PMA", "value": "no effect on translocation"},
      {"measurement": "Inhibition of binding of MBP-p22-C and GST-p47-bis-SH3 in pulldown", "setting": "[8]", "value": "markedly inhibited"},
      {"measurement": "IC50 in the FP binding assay", "setting": "[9]; rho-PRD plus GST-p47-bis-SH3, 1% DMSO", "value": "submicromolar"}
    ]},
    {"molecule": "O=c1c2ccccc2sn1-c1ccccc1", "note": "[Thr101]", "values": [
      {"measurement": "IC50", "setting": "Nox2 [1]; read-out: IC50 in the cell-free Nox2 activity assay, neutrophil membranes, 1% DMSO", "value": "4 µM and ~4 µM"},
      {"measurement": "EC50", "setting": "Nox2 [2]; read-out: EC50 for inhibition of Nox2 activity in whole cell assay, human neutrophils, ns = no significant inhibition", "value": 300, "unit": "nM"},
      {"measurement": "EC50", "setting": "Nox1; read-out: EC50 for inhibition of Nox1 activity in whole cell assay, HEK/Nox1rb cells, ns = no significant inhibition", "value": 3000, "unit": "nM"},
      {"measurement": "EC50", "setting": "Nox4", "value": 8, "unit": "µM"},
      {"measurement": "IC50", "setting": "[9]; read-out: IC50 in the FP binding assay, rho-PRD plus GST-p47-bis-SH3, 1% DMSO", "value": "4 µM and ~4 µM"}
    ]},
    {"molecule": "COC(=O)c1ccc(-n2sc3ccccc3c2=O)cc1", "note": "[l]", "values": [
      {"measurement": "Fold improvement in activity versus comparator compound", "setting": "Nox2 [1]; [11]", "value": "~ 10 fold"},
      {"measurement": "Fold improvement in binding versus comparator compound", "setting": "[9]; [11]", "value": "~ 10 fold"},
      {"measurement": "IC50", "setting": "[9]; read-out: Potency in the binding assay, FP assay", "value": 0.5, "unit": "µM"}
    ]},
    {"molecule": "rhodamine-PPTNPPPRPPAE-NH2 (reading uncertain)", "note": "[rhodamine-labeled peptide corresponding to the PRD of p22phox (rho-PRD)]", "values": [
      {"measurement": "Kd", "setting": "[10]", "value": "20 to 40 nM and 20 nM"}
    ]}
  ]
}
